# Source: ChEMBL document CHEMBL1201862, “PubChem BioAssay data set” (2004)
# The source made the active and inactive calls.
# Assays:
# [1] = biological target: Disintegrin and metalloproteinase domain-containing protein 17 (Homo sapiens, UniProt P78536); assay: inhibition of ADAM17 substrate cleavage – biochemical, quenched FRET substrate, counter-screen for ADAM10 exosite inhibitor project, dose response (AID 743253)
# [2] = potency of ADAM10 substrate cleavage blockers – biochemical, QFRET, dose response (AID 743254);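 also: ADAM10 enzyme with the DM2 quenched FRET peptide as substrate; EDANS fluorescence gain as the protease cuts the substrate; inhibitor potency against ADAM10 proteolytic activity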
# [3] = biological target: 1-phosphatidylinositol 4,5-bisphosphate phosphodiesterase gamma-1 (Homo sapiens, UniProt P19174); assay: Counterscreen for inhibitors of phospholipase C isozymes (PLC-B3): Fluorescence-based biochemical high throughput dose response assay to identify inhibitors of phospholipase C isozymes (PLC-gamma1).
# Sequence of 1-phosphatidylinositol 4,5-bisphosphate phosphodiesterase gamma-1 (P19174 whole entry): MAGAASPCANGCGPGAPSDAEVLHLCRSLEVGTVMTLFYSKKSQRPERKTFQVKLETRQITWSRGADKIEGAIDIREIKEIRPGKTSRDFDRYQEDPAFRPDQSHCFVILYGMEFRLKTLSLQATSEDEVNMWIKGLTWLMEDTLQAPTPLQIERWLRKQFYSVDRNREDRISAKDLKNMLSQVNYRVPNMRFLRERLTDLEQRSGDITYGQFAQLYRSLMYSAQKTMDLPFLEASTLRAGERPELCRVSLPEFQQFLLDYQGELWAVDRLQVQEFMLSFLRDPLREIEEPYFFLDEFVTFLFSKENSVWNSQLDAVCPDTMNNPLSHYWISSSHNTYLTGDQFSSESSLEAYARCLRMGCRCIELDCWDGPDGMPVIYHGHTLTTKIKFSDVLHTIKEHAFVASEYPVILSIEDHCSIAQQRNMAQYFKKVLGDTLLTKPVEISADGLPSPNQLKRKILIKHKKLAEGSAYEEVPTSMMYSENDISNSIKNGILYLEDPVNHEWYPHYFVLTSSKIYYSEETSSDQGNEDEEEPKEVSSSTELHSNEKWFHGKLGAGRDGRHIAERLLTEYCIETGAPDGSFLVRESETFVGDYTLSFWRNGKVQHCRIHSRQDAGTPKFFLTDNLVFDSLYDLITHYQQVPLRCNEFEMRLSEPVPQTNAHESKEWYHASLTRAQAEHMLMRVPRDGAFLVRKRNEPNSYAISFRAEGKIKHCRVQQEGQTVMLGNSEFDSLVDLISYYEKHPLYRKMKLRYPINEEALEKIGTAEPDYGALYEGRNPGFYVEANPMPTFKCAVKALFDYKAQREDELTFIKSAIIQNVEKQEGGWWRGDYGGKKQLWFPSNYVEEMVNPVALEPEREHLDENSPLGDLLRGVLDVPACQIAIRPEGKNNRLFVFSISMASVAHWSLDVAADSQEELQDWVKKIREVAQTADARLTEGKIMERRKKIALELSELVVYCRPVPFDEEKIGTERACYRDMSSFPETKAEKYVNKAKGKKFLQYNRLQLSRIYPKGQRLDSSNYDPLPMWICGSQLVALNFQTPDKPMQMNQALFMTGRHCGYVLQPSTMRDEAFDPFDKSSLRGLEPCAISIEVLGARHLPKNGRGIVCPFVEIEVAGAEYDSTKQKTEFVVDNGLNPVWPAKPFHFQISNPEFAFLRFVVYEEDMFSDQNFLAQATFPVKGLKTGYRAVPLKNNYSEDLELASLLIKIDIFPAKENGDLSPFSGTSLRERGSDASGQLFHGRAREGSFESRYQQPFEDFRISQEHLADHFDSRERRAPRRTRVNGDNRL
# [4] = biological target: 1-phosphatidylinositol 4,5-bisphosphate phosphodiesterase beta-3 (Homo sapiens, UniProt Q01970); assay: Fluorescence-based biochemical high throughput dose response assay to identify inhibitors of phospholipase C isozymes (PLC-B3).
# Sequence of 1-phosphatidylinositol 4,5-bisphosphate phosphodiesterase beta-3 (Q01970 whole entry): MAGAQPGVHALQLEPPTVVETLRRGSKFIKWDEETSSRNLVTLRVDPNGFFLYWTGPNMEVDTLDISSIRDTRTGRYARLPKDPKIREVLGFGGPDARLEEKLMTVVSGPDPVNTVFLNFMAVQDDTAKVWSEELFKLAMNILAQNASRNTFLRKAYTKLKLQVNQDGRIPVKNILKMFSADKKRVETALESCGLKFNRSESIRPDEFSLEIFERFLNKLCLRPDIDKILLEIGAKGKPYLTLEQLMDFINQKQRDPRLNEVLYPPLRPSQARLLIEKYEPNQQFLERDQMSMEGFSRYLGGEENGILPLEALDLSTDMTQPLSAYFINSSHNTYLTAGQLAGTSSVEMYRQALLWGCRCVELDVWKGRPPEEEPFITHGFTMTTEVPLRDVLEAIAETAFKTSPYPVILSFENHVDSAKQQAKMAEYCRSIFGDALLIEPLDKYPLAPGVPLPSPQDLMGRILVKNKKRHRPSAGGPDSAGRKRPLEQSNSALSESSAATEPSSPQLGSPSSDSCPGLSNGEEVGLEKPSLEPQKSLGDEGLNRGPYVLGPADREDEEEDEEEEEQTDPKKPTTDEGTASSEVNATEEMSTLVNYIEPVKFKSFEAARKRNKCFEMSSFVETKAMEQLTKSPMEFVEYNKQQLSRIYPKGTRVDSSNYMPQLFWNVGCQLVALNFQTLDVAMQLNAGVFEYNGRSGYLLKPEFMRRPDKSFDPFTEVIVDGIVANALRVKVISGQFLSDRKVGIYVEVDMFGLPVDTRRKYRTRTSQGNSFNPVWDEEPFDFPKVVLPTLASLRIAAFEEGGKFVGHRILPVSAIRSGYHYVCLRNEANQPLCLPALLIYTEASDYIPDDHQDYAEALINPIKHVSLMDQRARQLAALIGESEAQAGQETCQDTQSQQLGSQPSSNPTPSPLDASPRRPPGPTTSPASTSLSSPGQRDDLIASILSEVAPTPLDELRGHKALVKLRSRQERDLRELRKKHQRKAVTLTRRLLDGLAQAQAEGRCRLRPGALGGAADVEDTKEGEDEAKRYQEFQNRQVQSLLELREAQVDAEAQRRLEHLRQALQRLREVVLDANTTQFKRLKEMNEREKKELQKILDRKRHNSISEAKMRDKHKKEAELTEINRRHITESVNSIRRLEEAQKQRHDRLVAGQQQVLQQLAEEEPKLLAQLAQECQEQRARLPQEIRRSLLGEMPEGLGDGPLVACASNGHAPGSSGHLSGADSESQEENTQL
# [5] = Late stage counterscreen for inhibitors of Trypanosoma brucei methionyl tRNA synthetase (MetRS): Luminescence-based cell-based high throughput dose response assay to identify compounds that are cytotoxic to Jurkat human T lymphocyte cells.; assay type: functional
# [6] = blockers of HIV-1 ZM109 envelope-driven cell-cell fusion – HeLa effector, CEM target cells, luciferase, cherry-pick, dose response (AID 652058); assay type: functional, cell-based;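 also: luciferase signal from HIV-1 Env mediated cell-cell fusion of effector and target cells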
# [7] = reduction of Shn3 3'UTR-driven luciferase in osteoblasts – cell-based, Clone20 osteoblasts, firefly luciferase, cherry-picked, dose response (AID 624132); assay type: functional;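 also: firefly luciferase luminescence from reporter carrying the Shn3 3'UTR in osteoblasts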
# [8] = biological target: Protein Wnt-3a (Mus musculus, UniProt P27467); assay: antagonism of Wnt3a pathway luciferase reporter – Wnt-LIGHT cells, luminescence, selectivity assay for Gli-SUFU antagonist project, dose response (AID 651570); assay type: functional; settings: read-out: IC50_Mean;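 also: Wnt-LIGHT reporter cells stimulated with conditioned medium from Wnt3a-producing cells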
# Sequence of Protein Wnt-3a (P27467 whole entry): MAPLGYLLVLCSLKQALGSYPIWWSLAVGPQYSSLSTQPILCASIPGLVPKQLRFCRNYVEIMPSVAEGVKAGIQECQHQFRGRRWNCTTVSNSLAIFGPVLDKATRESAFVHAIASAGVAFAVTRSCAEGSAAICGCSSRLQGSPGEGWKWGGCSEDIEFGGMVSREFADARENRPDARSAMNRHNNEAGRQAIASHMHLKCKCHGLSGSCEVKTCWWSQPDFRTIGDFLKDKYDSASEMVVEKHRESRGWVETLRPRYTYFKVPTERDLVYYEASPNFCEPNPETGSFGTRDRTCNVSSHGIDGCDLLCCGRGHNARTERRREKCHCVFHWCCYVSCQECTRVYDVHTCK
# [9] = loss of viability in HepG2 cells – cell-based, CellTiter-Glo, cherry-picked, cytotoxicity control for Shn3 inhibitor project, dose response (AID 624134); assay type: functional
# [10] = A cytotoxicity screen of small molecule inhibitors of the PhoP region in Salmonella typhi identified in the primary screen. [Related pubchem assays: 1850, 1864, 1985 ]; assay type: functional
# [11] = HIV-1 AD8 envelope cell-cell fusion blockers – cherry-pick, dose response (AID 652062); assay type: functional, cell-based;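 also: luciferase signal from cell-cell fusion driven by HIV-1 clade B AD8 Env; potency is for inhibitors of fusion seen as a drop in luminescence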
# [12] = viability loss in CEM21 cells – cell-based, CellTiter-Glo luminescence, cherry-picked, cytotoxicity control for viral fusion inhibitor project, dose response (AID 652042); assay type: functional;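 also: potency for signal decrease meaning cytotoxicity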
# [13] = Shn3 3'UTR reporter signal decrease – cell-based, Clone20 osteoblasts, firefly luciferase, cherry-pick, set 2, Schnurri-3 inhibitor project, dose response (AID 720490); assay type: functional;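 also: actives lower the luminescence signal as inhibitors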
# [14] = tested on: INS1; assay: INS-1E survival protection against cytokine death – cell-based, luminescence, retest, dose response (AID 449756); assay type: functional; settings: Rattus norvegicus;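 also: cell death triggered by IL-1 beta plus TNF-alpha plus IFN-gamma mixture; protective hits raise ATP signal compared with cytokine alone wells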
# [15] = blockers of HIV-1 envelope-mediated cell-cell fusion – cherry-pick, dose response (AID 652057); assay type: functional, cell-based
# [16] = non-specific 3'UTR reporter inhibition in Clone20-Shn3RL – cell-based, Renilla luciferase, cherry-picked, counter-screen for Shn3 inhibitor project, dose response (AID 624133); assay type: functional
# [17] = biological target: Paired box protein Pax-8 (Homo sapiens, UniProt Q06710); assay: PAX8 transcriptional activity inhibition in RMG-I – RMG-I cells, luciferase, cherry-pick, dose response (AID 687027); assay type: functional, cell-based;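 also: luciferase reporter driven by Pax8 target thyroperoxidase promoter measured by SteadyGlo luminescence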
# Sequence of Paired box protein Pax-8 (Q06710 whole entry): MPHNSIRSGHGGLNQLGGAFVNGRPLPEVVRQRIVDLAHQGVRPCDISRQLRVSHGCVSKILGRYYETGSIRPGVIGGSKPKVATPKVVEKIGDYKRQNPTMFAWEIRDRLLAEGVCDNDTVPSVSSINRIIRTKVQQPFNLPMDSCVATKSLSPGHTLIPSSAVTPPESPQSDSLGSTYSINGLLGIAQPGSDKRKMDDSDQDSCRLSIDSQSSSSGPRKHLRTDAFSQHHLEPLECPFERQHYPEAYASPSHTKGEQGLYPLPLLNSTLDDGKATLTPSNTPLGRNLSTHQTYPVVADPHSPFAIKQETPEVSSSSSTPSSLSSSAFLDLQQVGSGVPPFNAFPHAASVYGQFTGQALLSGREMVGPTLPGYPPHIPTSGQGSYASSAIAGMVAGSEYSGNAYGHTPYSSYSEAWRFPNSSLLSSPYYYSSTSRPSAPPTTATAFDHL
# [18] = A2780 cell killing – plate reader, dry powder samples, cytotoxicity control, dose response (AID 743046); assay type: functional, cell-based
# [19] = OVCAR8 cell viability loss – plate reader, dry powder samples, PAX8 project, dose response (AID 743197); assay type: functional, cell-based; settings: OVCAR-8
# [20] = biological target: T1, Rac GTPase-activating protein 1 (Homo sapiens, UniProt Q9H0H5); assay: blockers of MgcRacGAP-driven Rac1 GTP hydrolysis – biochemical, ADP Hunter fluorescence, primary and confirmatory, confirmation (AID 624330); assay type: functional
# T1 sequence (Q9H0H5 whole entry): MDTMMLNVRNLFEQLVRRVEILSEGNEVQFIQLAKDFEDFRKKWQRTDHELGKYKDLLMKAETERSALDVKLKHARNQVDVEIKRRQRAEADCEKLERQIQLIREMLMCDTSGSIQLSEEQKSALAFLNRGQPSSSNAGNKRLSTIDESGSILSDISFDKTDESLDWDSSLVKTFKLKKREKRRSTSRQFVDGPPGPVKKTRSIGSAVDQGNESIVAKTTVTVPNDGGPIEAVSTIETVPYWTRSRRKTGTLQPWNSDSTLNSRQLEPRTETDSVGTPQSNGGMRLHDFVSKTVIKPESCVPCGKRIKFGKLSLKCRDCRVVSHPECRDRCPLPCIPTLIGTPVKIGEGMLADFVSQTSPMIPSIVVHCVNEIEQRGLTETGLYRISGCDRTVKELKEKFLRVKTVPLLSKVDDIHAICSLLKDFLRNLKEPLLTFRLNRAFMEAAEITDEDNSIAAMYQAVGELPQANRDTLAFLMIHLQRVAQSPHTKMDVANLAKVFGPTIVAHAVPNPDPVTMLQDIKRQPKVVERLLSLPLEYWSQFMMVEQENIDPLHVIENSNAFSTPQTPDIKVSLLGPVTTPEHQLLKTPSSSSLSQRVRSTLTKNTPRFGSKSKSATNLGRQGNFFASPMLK
# [21] = biological target: T2, Oxysterols receptor LXR-beta (Homo sapiens, UniProt P55055); assay type: functional, cell-based;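 also: agonist activity at LXR measured by a cell-based luminescence readout across a dose range, run as a counterscreen for daf-12 agonists; HEK293 cells with Gal4-LXR fusion and GAL4-driven luciferase reporter; potency for activation of Gal4-LXR reporter so compounds are agonists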
# T2 sequence (P55055 whole entry): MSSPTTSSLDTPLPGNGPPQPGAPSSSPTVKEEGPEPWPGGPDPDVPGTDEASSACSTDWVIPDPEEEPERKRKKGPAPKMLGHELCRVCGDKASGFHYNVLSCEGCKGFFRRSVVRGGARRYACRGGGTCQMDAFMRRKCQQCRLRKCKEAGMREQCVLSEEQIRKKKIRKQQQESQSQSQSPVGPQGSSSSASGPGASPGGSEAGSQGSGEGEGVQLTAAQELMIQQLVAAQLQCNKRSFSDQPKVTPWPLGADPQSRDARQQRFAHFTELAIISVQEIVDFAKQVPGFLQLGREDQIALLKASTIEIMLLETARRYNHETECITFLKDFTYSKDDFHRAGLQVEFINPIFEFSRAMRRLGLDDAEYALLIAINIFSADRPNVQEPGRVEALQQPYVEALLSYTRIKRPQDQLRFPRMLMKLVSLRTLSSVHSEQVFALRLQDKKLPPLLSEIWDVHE
# [22] = Luminescence Cell-Based Dose Response to Identify Activators of Luciferase Translation or Activity in H4-C Neuroglioblastoma Cells. [Related pubchem assays: 1829 (Project Summary), 1814 (Primary HTS)]; assay type: functional
# [23] = tested on: H4; assay: Luminescence Cell-Based Dose Response HTS to Identify Activators of 5'UTR Stem-Loop Driven Prion Protein mRNA Translation in H4 Neuroglioblastoma Cells. [Related pubchem assays: 1829 (Project Summary), 1814 (Primary HTS)]; assay type: functional; settings: Homo sapiens
# [24] = Luminescence Cell-Based Dose Response to Identify Activators of 5'UTR Stem-Loop Driven Prion Protein mRNA Translation in H4-C Neuroglioblastoma Cells. [Related pubchem assays: 1829 (Project Summary), 1814 (Primary HTS)]; assay type: functional
# [25] = Luminescence Cell-Based Dose Confirmation to Identify Activators of 5'UTR Stem-Loop Driven Alpha-Synuclein mRNA Translation in H4 Neuroglioblastoma Cells. [Related pubchem assays: 1829 (Project Summary), 1814 (Primary HTS)]; assay type: functional
# [26] = Luminescence Cell-Based Dose Response HTS to Identify Activators of Luciferase Translation or Activity in H4 […] Cells. [Related pubchem assays: 1829 (Project Summary), 1814 (Primary HTS)]; assay type: functional
# Sequence of Disintegrin and metalloproteinase domain-containing protein 17 (P78536 whole entry, the tested form may be a part): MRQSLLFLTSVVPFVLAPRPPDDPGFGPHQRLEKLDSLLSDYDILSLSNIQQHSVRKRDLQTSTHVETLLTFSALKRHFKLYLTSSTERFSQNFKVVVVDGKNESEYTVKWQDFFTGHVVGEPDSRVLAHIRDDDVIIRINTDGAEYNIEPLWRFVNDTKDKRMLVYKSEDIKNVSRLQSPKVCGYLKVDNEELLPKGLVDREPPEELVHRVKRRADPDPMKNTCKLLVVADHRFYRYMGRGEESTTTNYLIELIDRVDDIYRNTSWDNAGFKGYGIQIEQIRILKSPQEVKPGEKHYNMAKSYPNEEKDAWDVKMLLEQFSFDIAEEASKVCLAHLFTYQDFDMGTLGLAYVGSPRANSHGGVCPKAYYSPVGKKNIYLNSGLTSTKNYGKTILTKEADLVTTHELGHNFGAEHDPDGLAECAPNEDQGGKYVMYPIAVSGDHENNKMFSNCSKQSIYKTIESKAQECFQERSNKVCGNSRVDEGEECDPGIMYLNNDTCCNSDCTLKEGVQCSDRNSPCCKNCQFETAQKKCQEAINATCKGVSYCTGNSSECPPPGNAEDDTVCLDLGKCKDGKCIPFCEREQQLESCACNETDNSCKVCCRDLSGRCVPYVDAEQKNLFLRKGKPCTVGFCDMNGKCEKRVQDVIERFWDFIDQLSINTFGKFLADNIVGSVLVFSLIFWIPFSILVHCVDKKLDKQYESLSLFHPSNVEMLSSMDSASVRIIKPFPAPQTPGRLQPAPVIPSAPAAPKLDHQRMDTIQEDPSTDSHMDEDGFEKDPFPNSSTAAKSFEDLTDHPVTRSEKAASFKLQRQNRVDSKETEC
smiles,measurement,setting,value
C=CCN(c1ccccc1OC)S(=O)(=O)c1cccc(C(=O)OCC(=O)c2c[nH]c3ccccc23)c1,IC50,[1],> 69.5 µM (inactive)
same,IC50,[2],> 69.5 µM (inactive)
CCCCN=C(S)NNC(=O)c1csc(C)c1,IC50,[3],> 122 µM (inactive)
same,IC50,[4],> 122 µM (inactive)
O=C(NCc1nc2ccccc2[nH]1)C1=C[C@H](c2ccc(Br)cc2)C[C@H](OCc2ccc(CO)cc2)O1,IC50,[5],81.3 µM (inactive)
CCCCOCCCNc1[nH]cnc2c3ccccc3nc1-2,AC50,[6],14.8 µM (active)
same,AC50,[7],1.05 µM (active)
same,IC50,[8],0.843 µM (active)
same,AC50,[9],22.9 µM (active)
same,EC50,[10],> 50 µM (active)
same,AC50,[11],5.02 µM (active)
same,AC50,[12],46.3 µM (active)
same,AC50,[13],1.48 µM (active)
same,AC50,[14],1.78 µM (active)
same,AC50,[15],33.8 µM (active)
same,AC50,[16],10.9 µM (active)
C[C@H]1CN([C@@H](C)CO)C(=O)Cc2cc(NC(=O)Nc3ccc4c(c3)OCO4)ccc2O[C@@H]1CN(C)CC1CCCCC1,AC50,[17],31.2 µM (active)
same,AC50,[18],22.2 µM (active)
same,AC50,[19],62.9 µM (active)
CN1C(=O)/C(=C/C=C2\SCCN2C)N(C)C1=S,IC50,[20],20 µM (active)
same,EC50,[21],> 67.6 µM (inactive)
same,EC50,[22],0.41 µM (active)
same,EC50,[23],> 120 µM (inconclusive)
same,EC50,[24],0.383 µM (active)
same,EC50,[25],0.766 µM (active)
same,EC50,[26],< 0.1 µM (active)
